The values below come from patent US20230089073A1 (Carmot Therapeutics, Inc., priority 2021, published 2023).

For orientation: EC50 means the concentration giving half of the maximal effect.

In one test the test system is cynomolgus monkeys. The experiment in a line: Intravenous Glucose Tolerance Test (IVGTT) in Cynomolgus Monkeys. The class given is in vivo, cynomolgus monkeys (Macaca fascicularis). Conditions: test article intravenous bolus 1-6 minutes prior to IV glucose 0.5 g/kg, plasma insulin 0-60 minutes, FIG. 1. How it is done: Intravenous Glucose Tolerance Test (IVGTT) in Cynomolgus Monkeys
Aged ([…]) cynomolgus monkeys (Macaca fascicularis; N=4-5/test article) were fasted overnight and anesthetized with ketamine prior to the intravenous glucose tolerance test (IVGTT). The test articles were formulated at 6 mg/mL in vehicle (5% polyethylene glycol 400: 95% (12% (w/v) sulfobutylether-β-cyclodextrin in deionized water) (v/v)]) and administered by intravenous bolus into a peripheral vein 1-6 minutes prior to the IVGTT. The IVGTT was initiated by administration of an IV bolus of glucose (0.5 g/kg as a 50% glucose solution). Blood samples were collected from a peripheral vein 0, 1, 3, 5, 10, 20, 40 and 60 minutes upon completion of the IV bolus glucose injection. The blood samples were collected directly into potassium ethylene diamine tetra-acetic acid tubes and plasma separated by centrifugation at 2,500 g for 10 minutes within 30 minutes of collection. The plasma from all time points was analyzed for insulin concentrations ([…]) using a Cobas e411 Immunology analyzer. Insulin area-under-the-curve (AUC) was calculated using GraphPad Prism software (v 9).

In the next test the target is T1, human GLP-1 receptor (Homo sapiens, UniProt P43220).
T1 construct: expressed in transfected cells
The experiment in a line: GLP-1R cAMP Assay. The format is cell-based. Conditions: cAMP accumulation in CHO cells stably overexpressing the human GLP-1 receptor; 30 min treatment; HitHunter cAMP kit; read-out: EC50. Put shortly: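 CHO cells stably overexpressing human GLP-1R, 10,000 cells/well, treated with compound in 20-point dose response in triplicate for 30 min. cAMP accumulation read by enzyme-complementation luminescence after lysis and overnight incubation; dose-response curves fitted.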
Background: Changes in cAMP serve as a functional read-out for many G protein-coupled receptors.

T1 sequence (P43220 24-463): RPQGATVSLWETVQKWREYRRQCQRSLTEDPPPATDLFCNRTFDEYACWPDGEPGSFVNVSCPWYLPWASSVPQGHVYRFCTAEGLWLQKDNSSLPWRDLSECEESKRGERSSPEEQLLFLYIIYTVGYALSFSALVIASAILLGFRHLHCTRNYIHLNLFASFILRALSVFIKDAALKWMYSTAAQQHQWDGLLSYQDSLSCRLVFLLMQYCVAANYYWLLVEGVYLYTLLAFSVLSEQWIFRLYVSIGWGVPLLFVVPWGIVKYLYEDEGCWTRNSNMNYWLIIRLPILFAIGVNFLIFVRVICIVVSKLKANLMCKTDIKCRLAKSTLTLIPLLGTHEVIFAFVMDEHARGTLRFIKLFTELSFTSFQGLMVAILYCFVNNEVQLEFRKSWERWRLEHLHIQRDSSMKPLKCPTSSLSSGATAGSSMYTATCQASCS

With `CCn1cncc1Cn1c(CN2CCC(Oc3ccnc(COc4ccc(Cl)cc4C#N)c3)CC2)nc2ccc(C(=O)O)cc21` [Compound 171, 2-{[4-({2-[(4-chloro-2-cyanophenoxy)methyl]pyridin-4-yl}oxy)piperidin-1-yl]methyl}-1-[(1-ethyl-1H-imidazol-5-yl)methyl]-1H-1,3-benzodiazole-6-carboxylic acid], in the test with cynomolgus monkeys, the “insulin AUC (insulin secretion)” value is given as “substantial increase”. At human GLP-1 receptor, the concentration for a half-maximal effect (EC50) was less than 50 nM.

As for `O=C(O)c1ccc2nc(CN3CCC(Oc4ccnc(COc5ccc(F)cc5Cl)n4)CC3)n(C[C@@H]3CCO3)c2c1` [Compound 326], the “insulin AUC (insulin secretion)” value in the test with cynomolgus monkeys was “substantial increase”. For the same compound, the EC50 on human GLP-1 receptor was less than 50 nM.

As to `O=C(O)c1cc(F)c2nc(CN3CCC(Oc4ccnc(COc5ccc(Cl)cc5F)c4)CC3)n(C[C@@H]3CCO3)c2c1` [Compound 335], in the test with cynomolgus monkeys, the “insulin AUC (insulin secretion)” value is “substantial increase”. Further, the EC50 at human GLP-1 receptor was less than 50 nM.

For `O=C(O)c1ccc2nc(CN3CCC(Oc4ccnc(COc5ccc(C(F)(F)F)cc5F)n4)CC3)n(C[C@@H]3CCO3)c2c1` [Compound 338], the “insulin AUC (insulin secretion)” value in the test with cynomolgus monkeys is given as “substantial increase”. In addition, the EC50 at human GLP-1 receptor was less than 50 nM.

On to `CCn1cncc1Cn1c(CN2CCC(Oc3ccnc(COc4ccc(Cl)cc4Cl)c3)CC2)nc2ccc(C(=O)O)cc21` [Example 145, 2-((4-((2-((2,4-Dichlorophenoxy)methyl)pyridin-4-yl)oxy)piperidin-1-yl)methyl)-1-((1-ethyl-1H-imidazol-5-yl)methyl)-1H-benzo[d]imidazole-6-carboxylic acid], for which the “insulin AUC (insulin secretion)” value with cynomolgus monkeys is “substantial increase”. Also, the concentration for a half-maximal effect (EC50) at human GLP-1 receptor was less than 50 nM.

For the compound `CCn1cncc1Cn1c(CN2CCC(Oc3ccnc(COc4ccc(Cl)cc4C#N)c3)CC2(C)C)nc2ccc(C(=O)O)cc21` (stereo not shown) [Example 276, 2-((4-((2-((4-Chloro-2-cyanophenoxy)methyl)pyridin-4-yl)oxy)-2,2-dimethylpiperidin-1-yl)methyl)-1-((1-ethyl-1H-imidazol-5-yl)methyl)-1H-benzo[d]imidazole-6-carboxylic acid], the EC50 at human GLP-1 receptor was less than 50 nM.

On to `N#Cc1ccc(OCc2cccc(OC3CCN(Cc4nc5ccc(C(=O)O)cc5n4C[C@@H]4CCO4)CC3)n2)c(F)c1` [Example 285, (S)-2-((4-((6-((4-Cyano-2-fluorophenoxy)methyl)pyridin-2-yl)oxy)piperidin-1-yl)methyl)-1-(oxetan-2-ylmethyl)-1H-benzo[d]imidazole-6-carboxylic acid], for which, on human GLP-1 receptor, the EC50 is less than 50 nM.

Regarding `O=C(O)c1ccc2nc(CN3CCC(Oc4ccnc(COc5ccc(C(F)F)cc5F)c4)CC3)n(C[C@@H]3CCO3)c2c1` [Example 297, (S)-2-((4-((2-((4-(Difluoromethyl)-2-fluorophenoxy)methyl)pyridin-4-yl)oxy)piperidin-1-yl)methyl)-1-(oxetan-2-ylmethyl)-1H-benzo[d]imidazole-6-carboxylic acid], on human GLP-1 receptor, the EC50 was less than 50 nM.

`O=C(O)c1ccc2nc(CN3CCC(Oc4ccnc(COc5ccc(Cl)cc5CF)c4)CC3)n(C[C@@H]3CCO3)c2c1` [Example 299, (S)-2-((4-((2-((4-Chloro-2-(fluoromethyl)phenoxy)methyl)pyridin-4-yl)oxy)piperidin-1-yl)methyl)-1-(oxetan-2-ylmethyl)-1H-benzo[d]imidazole-6-carboxylic acid]: the EC50 at human GLP-1 receptor is less than 50 nM.

For the compound `N#Cc1ccc(OCc2cccc(OC3CCN(Cc4nc5c(F)cc(C(=O)O)cc5n4CC4(CF)CC4)CC3)c2)c(F)c1` [Example 300, 2-((4-(3-((4-Cyano-2-fluorophenoxy)methyl)phenoxy)piperidin-1-yl)methyl)-4-fluoro-1-((1-(fluoromethyl)cyclopropyl)methyl)-1H-benzo[d]imidazole-6-carboxylic acid], the EC50 on human GLP-1 receptor was less than 50 nM.

Take `O=C(O)c1ccc2nc(CN3CCC(Oc4ccnc(COc5ccc(Cl)cc5Cl)n4)CC3)n(C[C@@H]3CCO3)c2c1` [Example 304, (S)-2-((4-((2-((2,4-Dichlorophenoxy)methyl)pyrimidin-4-yl)oxy)piperidin-1-yl)methyl)-1-(oxetan-2-ylmethyl)-1H-benzo[d]imidazole-6-carboxylic acid]: at human GLP-1 receptor, the EC50 is less than 50 nM.

Regarding `C[C@H]1C[C@@H](Oc2ccnc(COc3ccc(C#N)cc3F)n2)CCN1Cc1nc2ccc(C(=O)O)cc2n1C[C@@H]1CCO1` [Example 313, 2-(((2S,4S)-4-((2-((4-Cyano-2-fluorophenoxy)methyl)pyrimidin-4-yl)oxy)-2-methylpiperidin-1-yl)methyl)-1-(((S)-oxetan-2-yl)methyl)-1H-benzo[d]imidazole-6-carboxylic acid], in the test on cynomolgus monkeys, the “insulin AUC (insulin secretion)” value is reported as “substantial increase”. Also, the EC50 on human GLP-1 receptor is less than 50 nM.

As to `N#Cc1ccc(OCc2ccc(F)c(OC3CCN(Cc4nc5ccc(C(=O)O)cc5n4C[C@@H]4CCO4)CC3)n2)c(F)c1` [Example 330, (S)-2-((4-((6-((4-Cyano-2-fluorophenoxy)methyl)-3-fluoropyridin-2-yl)oxy)piperidin-1-yl)methyl)-1-(oxetan-2-ylmethyl)-1H-benzo[d]imidazole-6-carboxylic acid], the 50% effective concentration (EC50) at human GLP-1 receptor was less than 50 nM.

As for `C[C@H]1C[C@@H](Oc2ccnc(COc3ccc(F)cc3C#N)n2)CCN1Cc1nc2ccc(C(=O)O)cc2n1C[C@@H]1CCO1` [Example 355, 2-(((2S,4S)-4-((2-((2-cyano-4-fluorophenoxy)methyl)pyrimidin-4-yl)oxy)-2-methylpiperidin-1-yl)methyl)-1-(((S)-oxetan-2-yl)methyl)-1H-benzo[d]imidazole-6-carboxylic acid], the “insulin AUC (insulin secretion)” value in the test on cynomolgus monkeys is recorded as “substantial increase”. The 50% effective concentration (EC50) at human GLP-1 receptor is less than 50 nM.

Turning to `N#Cc1ccc(OCc2cc(OC3CCN(Cc4nc5ccc(C(=O)O)cc5n4C[C@@H]4CCO4)CC3)c(F)cn2)c(F)c1` [Example 367, (S)-2-((4-((2-((4-Cyano-2-fluorophenoxy)methyl)-5-fluoropyridin-4-yl)oxy)piperidin-1-yl)methyl)-1-(oxetan-2-ylmethyl)-1H-benzo[d]imidazole-6-carboxylic acid], the EC50 at human GLP-1 receptor is less than 50 nM.

On to `COC1(Cn2c(CN3CCC(Oc4ccnc(COc5ccc(Cl)cc5F)c4)CC3)nc3ccc(C(=O)O)cc32)CC1` [Example 368, 2-((4-((2-((4-Chloro-2-fluorophenoxy)methyl)pyridin-4-yl)oxy)piperidin-1-yl)methyl)-1-((1-methoxycyclopropyl)methyl)-1H-benzo[d]imidazole-6-carboxylic acid], for which, on human GLP-1 receptor, the EC50 is less than 50 nM.

Turning to `N#Cc1ccc(OCc2cccc(OC3CCN(Cc4nc5ccc(C(=O)O)nc5n4C[C@@H]4CCO4)CC3)n2)c(F)c1` [Example 372, (S)-2-((4-((6-((4-Cyano-2-fluorophenoxy)methyl)pyridin-2-yl)oxy)piperidin-1-yl)methyl)-3-(oxetan-2-ylmethyl)-3H-imidazo[4,5-b]pyridine-5-carboxylic acid], the EC50 at human GLP-1 receptor is less than 50 nM.

`O=C(O)c1ccc2nc(CN3CCC(Oc4ccnc(COc5ccc(F)cc5Cl)n4)CC3)n(C[C@H]3CCN3C(=O)c3ccon3)c2c1` [Example 483, (R)-2-((4-((2-((2-Chloro-4-fluorophenoxy)methyl)pyrimidin-4-yl)oxy)piperidin-1-yl)methyl)-1-((1-(isoxazole-3-carbonyl)azetidin-2-yl)methyl)-1H-benzo[d]imidazole-6-carboxylic acid]: on human GLP-1 receptor, the EC50 was less than 50 nM.

On to `N#Cc1ccc(OCc2nccc(OC3CCN(Cc4nc5ncc(C(=O)O)cc5n4C[C@@H]4CCO4)CC3)n2)c(F)c1` [Example 486, (S)-2-((4-((2-((4-Cyano-2-fluorophenoxy)methyl)pyrimidin-4-yl)oxy)piperidin-1-yl)methyl)-1-(oxetan-2-ylmethyl)-1H-imidazo[4,5-b]pyridine-6-carboxylic acid], for which, at human GLP-1 receptor, the EC50 was less than 50 nM.

With `N#Cc1ccc(OCc2nccc(O[C@H]3CCN(Cc4nc5ccc(C(=O)O)cc5n4C[C@@H]4CCO4)[C@@H](CF)C3)n2)c(F)c1` [Example 490, 2-(((2R,4S)-4-((2-((4-Cyano-2-fluorophenoxy)methyl)pyrimidin-4-yl)oxy)-2-(fluoromethyl)piperidin-1-yl)methyl)-1-(((S)-oxetan-2-yl)methyl)-1H-benzo[d]imidazole-6-carboxylic acid], the EC50 at human GLP-1 receptor was less than 50 nM.

For the compound `N#Cc1cc(F)c(OCc2nccc(OC3CCN(Cc4nc5ccc(C(=O)O)cc5n4C[C@@H]4CCO4)CC3)n2)cc1F` [Example 498, (S)-2-((4-((2-((4-Cyano-2,5-difluorophenoxy)methyl)pyrimidin-4-yl)oxy)piperidin-1-yl)methyl)-1-(oxetan-2-ylmethyl)-1H-benzo[d]imidazole-6-carboxylic acid], at human GLP-1 receptor, the EC50 was less than 50 nM.
